Tested on: Proteasome
Experiment: Inhibitory activity against proteasome at 100 nM concentration
Assay type: subcellular

Q: Which inhibition does the source give for N=C(N)NCCC[C@H](NC(=O)C(CCCCCCCCN1C(=O)c2ccccc2C1=O)C1CCCC1)C(=O)N[C@@H](Cc1ccccc1)C(=O)C(=O)NCCNS(=O)(=O)c1ccccc1 (stereo partly drawn) here?
A: Its inhibition is 31%.

Q: Which inhibition does the source give for CC(C)(C)OC(=O)/N=C(\NCCC[C@H](NC(=O)C(CCCCCCCCN1C(=O)c2ccccc2C1=O)C1CCCC1)C(=O)N[C@@H](Cc1ccccc1)C(=O)C(=O)NCCNS(=O)(=O)c1ccccc1)NC(=O)OC(C)(C)C (stereo partly drawn) here?
A: The inhibition was 34%.

Q: With CC(C)(C)OC(=O)NCCCC[C@H](NC(=O)C(CCCCCCCCN1C(=O)c2ccccc2C1=O)C1CCCC1)C(=O)N[C@@H](Cc1ccccc1)C(=O)C(=O)NCCNS(=O)(=O)c1ccccc1 (stereo partly drawn) as the molecule, how does the inhibition read?
A: Its inhibition is 48%.

Tested on: Proteasome
Experiment: Inhibitory activity against proteasome at 1 uM concentration
Assay type: subcellular

Q: With N/C(=N/CCCC(NC(=O)OCc1ccccc1)C(=O)N[C@@H](Cc1ccccc1)C(=O)C(=O)NCCNS(=O)(=O)c1ccccc1)N[N+](=O)[O-] (stereo partly drawn) as the molecule, how does the inhibition read?
A: Its inhibition is 34%.

Tested on: Proteasome
Experiment: Inhibitory activity against proteasome at 10 uM concentration
Assay type: subcellular

Q: N[C@@H](Cc1ccccc1)C(=O)C(=O)NCCNS(=O)(=O)c1ccccc1 was tested. Which inhibition did it give?
A: The inhibition was 12%.

Q: How did the inhibition turn out when CC(C)(C)OC(=O)N[C@@H](Cc1ccccc1)C(=O)C(=O)NCCNS(=O)(=O)c1ccccc1 was run?
A: The inhibition was 14%.

Molecular target: Proteasome
Experiment: Inhibitory activity against proteasome
Assay type: subcellular

Q: How did the Ki turn out when NCCCC[C@H](NC(=O)C(CCCCCCCCN1C(=O)c2ccccc2C1=O)C1CCCC1)C(=O)N[C@@H](Cc1ccccc1)C(=O)C(=O)NCCNS(=O)(=O)c1ccccc1 (stereo partly drawn) was run?
A: Its Ki is 22 nM.

Q: For CCNC(=O)C(=O)[C@H](Cc1ccccc1)NC(=O)[C@H](CCC/N=C(\N)N[N+](=O)[O-])NC(=O)C(CCCCCCCCN1C(=O)c2ccccc2C1=O)C1CCCC1 (stereo partly drawn), which Ki is on record?
A: Its Ki is 12 nM.

Q: Which Ki does the source give for NCCNC(=O)C(=O)[C@H](Cc1ccccc1)NC(=O)[C@H](CCC/N=C(\N)N[N+](=O)[O-])NC(=O)C(CCCCCCCCN1C(=O)c2ccccc2C1=O)C1CCCC1 (stereo partly drawn) here?
A: Its Ki is 67 nM.

Q: With N/C(=N\CCC[C@H](NC(=O)C(CCCCCCCCN1C(=O)c2ccccc2C1=O)C1CCCC1)C(=O)N[C@@H](Cc1ccccc1)C(=O)C(=O)NCCNS(=O)(=O)c1ccccc1)N[N+](=O)[O-] (stereo partly drawn) as the molecule, how does the Ki read?
A: Its Ki is 1.1 nM.

Q: Which Ki does the source give for CS(=O)(=O)NCCCC[C@H](NC(=O)C(CCCCCCCCN1C(=O)c2ccccc2C1=O)C1CCCC1)C(=O)N[C@@H](Cc1ccccc1)C(=O)C(=O)NCCNS(=O)(=O)c1ccccc1 (stereo partly drawn) here?
A: Its Ki is 41 nM.

Q: How did the Ki turn out when CC(C)(C)OC(=O)NCCNC(=O)C(=O)[C@H](Cc1ccccc1)NC(=O)[C@H](CCC/N=C(\N)N[N+](=O)[O-])NC(=O)C(CCCCCCCCN1C(=O)c2ccccc2C1=O)C1CCCC1 (stereo partly drawn) was run?
A: Its Ki is 2.2 nM.

Q: O=C(NCCNS(=O)(=O)c1ccccc1)C(=O)[C@H](Cc1ccccc1)NC(=O)[C@H](CCCCNC(=O)c1cnccn1)NC(=O)C(CCCCCCCCN1C(=O)c2ccccc2C1=O)C1CCCC1 (stereo partly drawn) was tested. Which Ki did it give?
A: The Ki was 80 nM.
